Experimental data published in publication PMC8571282 (Nature Communications, 2021).
“And” between values parts separate entries of the source, which are not always exact repeats. Equal values may be shown once. Read-outs that look alike come from different tables or passages of the source.

Legend:
[1] = system: SARS-CoV-2 gamma isolate (BZ/2021, lineage P.1); experiment: microbe, parasite or virus in culture; format: cell-based; details: Severe acute respiratory syndrome coronavirus 2
[2] = system: SARS-CoV-2 (WA1/2020 and VOC α, β, γ); experiment: microbe, parasite or virus in culture; format: cell-based; details: Severe acute respiratory syndrome coronavirus 2, Vero C1008; read-out: Half-maximal effective concentrations (EC50), range
[3] = Cytotoxicity assay (PrestoBlue), HEp-2; details: human, HEp-2 cells
[4] = design: method as in Mackman et al 2021 (JMC 2021, 64(8), 5001-5017); details: cynomolgus macaques, ref Mackman et al 2021 (JMC 2021, 64(8), 5001-5017); cited from earlier work
[5] = design: method as in Mackman et al 2021 (JMC 2021, 64(8), 5001-5017); details: rats, ref Mackman et al 2021 (JMC 2021, 64(8), 5001-5017); cited from earlier work
[6] = system: well-differentiated primary human airway epithelium cultures; format: cell-based
in vitro [7] = details: human, % cell viability, HCT-8, 0.046 µM, 72 h
[8] = Single-dose plasma pharmacokinetics in ferrets; details: ferret, GS-441524 IV 20 mg/kg, 20 mg/kg
[9] = Cytotoxicity assay (PrestoBlue), “M2” HAE; details: human
[10] = system: SARS-CoV-2 CA/2020 (α, lineage B.1.1.7); experiment: microbe, parasite or virus in culture; format: cell-based; details: Severe acute respiratory syndrome coronavirus 2, Vero C1008; CA/2020, VeroE6, mean n=3
[11] = several species; cited from earlier work
“F3” primary HAE cells = experiment: Cytotoxicity assay (PrestoBlue), “F3” HAE; details: F3 HAE, 72 h
VeroE6 cells = experiment: Cytotoxicity assay (PrestoBlue), VeroE6; details: 72 h
[12] = Cytotoxicity assay (PrestoBlue), VeroE6; details: African green monkey, VeroE6 cells
[13] = Cytotoxicity assay (PrestoBlue), HCT-8; details: human, HCT-8 cells
[14] = system: SARS-CoV-2 BZ/2021 (γ, lineage P.1); experiment: microbe, parasite or virus in culture; format: cell-based; details: Severe acute respiratory syndrome coronavirus 2, Vero C1008; BZ/2021, VeroE6, mean n=3
[15] = system: SARS-CoV-2-Nluc (WA1/2020-nano luciferase); experiment: microbe, parasite or virus in culture; format: cell-based
[16] = Cytotoxicity assay (PrestoBlue), “F2” HAE; details: human
in vitro [17] = details: human
[18] = system: SARS-CoV-2 SA/2020 (β, lineage B.1.351); experiment: microbe, parasite or virus in culture; format: cell-based; details: Severe acute respiratory syndrome coronavirus 2, Vero C1008; SA/2020, VeroE6, mean n=3
[19] = Cytotoxicity assay (PrestoBlue), BHK-21; details: hamster, BHK-21 cells
“M6” primary HAE cells = experiment: Cytotoxicity assay (PrestoBlue), “M6” HAE; details: M6 HAE, 72 h
[20] = Cytotoxicity assay (PrestoBlue), “M6” HAE; details: human
[21] = system: SARS-CoV-2 WA1/2020 (lineage A); experiment: microbe, parasite or virus in culture; format: cell-based
in vitro [22] = details: human; remark: listed apart in the source

Q: With `N#C[C@@]1(c2ccc3c(N)ncnn23)O[C@H](CO)[C@@H](O)[C@H]1O` [GS-441524] as the molecule, how does the EC50 [1] read?
A: 2.83 µM

Q: And the EC50 [2]?
A: 0.11 to 0.68 µM

Q: And the viability at 72 h, 0.046 µM ([3]; % cell viability, HEp-2, 0.046 µM, 72 h)?
A: 52%

Q: What about the viability at 72 h, 100 µM ([3]; % cell viability, HEp-2, 100 µM, 72 h) of the same molecule?
A: 51%

Q: What about the CC50 at 72 h ([3]; CC50, HEp-2, 72 h) of the same molecule?
A: > 100 µM

Q: What about the “oral F” value [4] of the same molecule?
A: 3.4%

Q: And the “oral F” value [5]?
A: 12%

Q: And the “basolateral drug concentration at which epithelium integrity (TEER) was fully preserved” value [6]?
A: ≥ 3 µM

Q: What about the viability at 72 h, 0.046 µM (in vitro [7]) of the same molecule?
A: 88%

Q: And the “plasma concentration of GS-441524” value ([8]; 0.25 h)?
A: 40.5 and 46.6 and 24.1

Q: And the “plasma concentration of GS-441524” value ([8]; 0.48 h)?
A: 62.4 and 57.2 and 43

Q: What about the “plasma concentration of GS-441524” value ([8]; 0.58 h) of the same molecule?
A: 51.5 and 48.2 and 37.8

Q: What about the “plasma concentration of GS-441524” value ([8]; 4 h) of the same molecule?
A: 8.65 and 7.17

Q: And the “plasma concentration of GS-441524” value ([8]; 8 h)?
A: 2.1 and 1.85 and 1.83

Q: What about the “plasma concentration of GS-441524” value ([8]; 12 h) of the same molecule?
A: 0.669 and 0.467 and 0.448

Q: What about the CC50 at 72 h [9] of the same molecule?
A: > 100 µM

Q: What about the EC50 [10] of the same molecule?
A: 0.11 µM

Q: And the “oral bioavailability (in words)” value [11]?
A: poor oral bioavailability

Q: And the “% cell viability” value (“F3” primary HAE cells; 0.046 µM)?
A: 90%

Q: What about the “% cell viability” value (“F3” primary HAE cells; 100 µM) of the same molecule?
A: 86% and 74%

Q: And the “% cell viability” value (VeroE6 cells; VeroE6, 0.046 µM, 0.046 µM)?
A: 56% and 59%

Q: What about the “% cell viability” value (VeroE6 cells; VeroE6, 1.235 µM, 1.235 µM) of the same molecule?
A: 91% and 82%

Q: And the “% cell viability” value (VeroE6 cells; VeroE6, 3.704 µM, 3.704 µM)?
A: 92%

Q: And the “% cell viability” value (VeroE6 cells; VeroE6, 100 µM, 100 µM)?
A: 59%

Q: And the CC50 at 72 h [12]?
A: > 100 µM

Q: What about the viability at 72 h, 0.046 µM ([12]; % cell viability, VeroE6, 0.046 µM, 72 h) of the same molecule?
A: 60%

Q: And the viability at 72 h, 1.235 µM ([12]; % cell viability, VeroE6, 1.235 µM, 72 h)?
A: 75%

Q: What about the viability at 72 h, 3.704 µM ([12]; % cell viability, VeroE6, 3.704 µM, 72 h) of the same molecule?
A: 84%

Q: What about the viability at 72 h, 100 µM ([12]; % cell viability, VeroE6, 100 µM, 72 h) of the same molecule?
A: 66%

Q: And the viability at 72 h, 0.046 µM ([13]; % cell viability, HCT-8, 0.046 µM, 72 h)?
A: 74%

Q: What about the viability at 72 h, 1.235 µM ([13]; % cell viability, HCT-8, 1.235 µM, 72 h) of the same molecule?
A: 89%

Q: And the viability at 72 h, 100 µM ([13]; % cell viability, HCT-8, 100 µM, 72 h)?
A: 62%

Q: What about the CC50 at 72 h ([13]; CC50, HCT-8, 72 h) of the same molecule?
A: > 100 µM

Q: And the EC50 [14]?
A: 0.55 µM

Q: And the “A549-hACE2 SARS-CoV-2 Nluc (EC50 determination), normalized signal” value (from here on “A549-hACE2 SARS-CoV-2 Nluc … normalized signal”) ([15]; Conc 0.005 µM, replicate values of the experiments)?
A: 114.03

Q: What about the “A549-hACE2 SARS-CoV-2 Nluc … normalized signal” value ([15]; Conc 0.02 µM, replicate values of Exp 1-6) of the same molecule?
A: 66.74 and 93.22 and 117.07 and 119.81 and 81.21

Q: What about the “A549-hACE2 SARS-CoV-2 Nluc … normalized signal” value ([15]; Conc 0.07 µM, replicate values of Exp 1-6) of the same molecule?
A: 114.55 and 112.96 and 134.59 and 90.75

Q: And the “A549-hACE2 SARS-CoV-2 Nluc … normalized signal” value ([15]; Conc 0.21 µM, replicate values of Exp 1-6)?
A: 92.40 and 126.15

Q: And the “A549-hACE2 SARS-CoV-2 Nluc … normalized signal” value ([15]; Conc 3.333 µM, replicate values of the experiments)?
A: 14.96 and 23.34 and 25.42

Q: What about the “A549-hACE2 SARS-CoV-2 Nluc … normalized signal” value ([15]; Conc 5.56 µM, replicate values of Exp 1-6) of the same molecule?
A: 3.54 and 6.01 and 4.94 and 3.43 and 3.57 and 2.25 and 0.47 and 0.46 and 0.35 and 0.41 and 5.69

Q: And the “A549-hACE2 SARS-CoV-2 Nluc … normalized signal” value ([15]; Conc 10.000 µM, replicate values of the experiments)?
A: 0.35 and 0.30 and 0.32 and 0.31

Q: And the “A549-hACE2 SARS-CoV-2 Nluc … normalized signal” value ([15]; Conc 16.67 µM, replicate values of Exp 1-6)?
A: 1.67 and 0.36 (2×) and 0.34 and 1.12 and 1.72 and 1.07 and 0.18 (2×) and 0.21 and 0.23 and 0.31

Q: What about the “A549-hACE2 SARS-CoV-2 Nluc … normalized signal” value ([15]; Conc 50.00 µM, replicate values of Exp 1-6) of the same molecule?
A: 0.89 and 0.17 (2×) and 0.16 (3×) and 0.55 and 0.87 and 0.59 and 0.19 and 0.20 and 0.18

Q: What about the EC50 ([15]; Severe acute respiratory syndrome coronavirus 2, WA1/2020-nano luciferase, A549-ACE2, mean ± SD) of the same molecule?
A: 1.4 ± 0.9 µM

Q: What about the viability at 72 h, 0.046 µM ([16]; female, “F2” primary human airway epithelial (HAE) cells, % cell viability, F2 HAE, 0.046 µM) of the same molecule?
A: 92%

Q: What about the viability at 72 h, 100 µM ([16]; % cell viability, F2 HAE, 100 µM) of the same molecule?
A: 86%

Q: What about the CC50 at 72 h ([16]; CC50, “F2” HAE) of the same molecule?
A: > 100 µM

Q: And the CC50 at 48 h (in vitro [17])?
A: > 50 µM

Q: What about the EC50 [18] of the same molecule?
A: 0.34 µM

Q: What about the CC50 at 72 h [19] of the same molecule?
A: > 100 µM

Q: And the viability at 72 h, 0.046 µM ([19]; % cell viability, BHK-21, 0.046 µM, 72 h)?
A: 64%

Q: And the viability at 72 h, 1.235 µM ([19]; % cell viability, BHK-21, 1.235 µM, 72 h)?
A: 87%

Q: What about the “% cell viability” value (“M6” primary HAE cells; 0.046 µM) of the same molecule?
A: 87%

Q: What about the “% cell viability” value (“M6” primary HAE cells; 3.704 µM) of the same molecule?
A: 86%

Q: What about the CC50 at 72 h [20] of the same molecule?
A: > 100 µM

Q: And the EC50 ([21]; Severe acute respiratory syndrome coronavirus 2, Vero C1008, WA1/2020, VeroE6, mean n=3)?
A: 0.68 µM

Q: What about the Virus yield reduction ([21]; WA1/2020, VeroE6, 5.55556 µM, vehicle = 0) of the same molecule?
A: -3.43

Q: And the viability at 72 h, 3.704 µM (in vitro [22]; female, % cell viability)?
A: 90%

Q: And the CC50 at 72 h (in vitro [22])?
A: > 100 µM

Q: And the viability at 72 h, 100 µM (in vitro [22]; % cell viability)?
A: 62%
